Data on 1 molecule can be found in patent publication US20210130826A1, “METHODS OF MODULATING ANTISENSE ACTIVITY” (IONIS PHARMACEUTICALS, INC., priority 2018, published 2021).

This experiment deals with Malat-1. The experiment can be described thus: Malat-1 RNA by RT-qPCR in MHT cells; autophagy modulator, then oligonucleotide by free uptake. Type of experiment: cell-based, mouse. As for the experimental part: MHT cells (a mouse hepatocellular carcinoma cell line) were plated at 20,000 cells/well and treated with DMSO (control) or an autophagy modulator for 24 hours at the concentrations indicated in Table 2 below. 3-MA, BafA1, AZD8055, and leupeptin are […]. […] Fourteen hours after the addition of autophagy modulators, 10 μM of a modified control oligonucleotide or of a modified antisense oligonucleotide was added by free uptake for ten hours. The modified oligonucleotides, shown in Table 1 below, are 3-10-3 cEt gapmers in which every internucleoside linkage is a phosphorothioate internucleoside linkage. The three 5′-terminal nucleosides and the three 3′-terminal nucleosides of each oligonucleotide each comprise a cEt modified sugar moiety. The remaining ten nucleosides of each oligonucleotide each comprise an unmodified, 2′-deoxy sugar moiety.
Using the primer probe sets described in Table 3 below, RT-qPCR analysis was performed to detect RNA levels of Malat-1, shown in Table 4 and markers of autophagy, (Rab7, LAMP2, Atg7, ULK1, ULK2, Atg5, Beclin, and c-Jun), shown in Table 5. Results were normalized to cyclophilin A levels. To control for global effects of autophagy modulators on gene expression, Malat-1 RNA levels after treatment with an antisense oligonucleotide and an autophagy modulator were normalized to Malat-1 RNA levels in cells treated with control Compound No. 549148 and the same autophagy modulator.
MHT cells were plated at 20,000 cells/well and treated with DMSO (control) or an autophagy modulator for 24 hours, at the concentrations indicated Table 7 below. Fourteen hours after the addition of autophagy modulator, control or antisense oligonucleotides (see Table 6) were added at 1 μM, 2.5 μM, 5 μM, or 10 μM by free uptake for ten hours. The modified oligonucleotides, shown in Table 6 below, are 5-10-5 MOE gapmers in which every internucleoside linkage is a phosphorothioate internucleoside linkage. The five 5′-terminal nucleosides and the five 3′-terminal nucleosides of each oligonucleotide each comprise a 2′-MOE modified sugar moiety. The remaining ten nucleosides of each oligonucleotide each comprise an unmodified, 2′-deoxy sugar moiety.
RT-qPCR analysis was performed to detect RNA levels of Malat-1 using primer probe set 15877 (described in Example 1). In order to control for global effects of autophagy modulators on gene expression, Malat-1 RNA levels after treatment with an antisense oligonucleotide and an autophagy modulator were normalized to Malat-1 RNA levels in cells treated with control Compound No. 141923 and the same autophagy modulator. Each table below represents results from an individual assay.
(Quantitative PCR measures a nucleic acid by following its amplification.)

In the case of `COc1ccc(-c2ccc3c(N4CCOC[C@@H]4C)nc(N4CCOC[C@@H]4C)nc3n2)cc1CO` [AZD8055], for the setting “MOE gapmer 399462, relative to DMSO”, the “effect of autophagy modulator on modified oligonucleotide activity (in words)” value is recorded as “significantly enhanced modified oligonucleotide activity”. For the same molecule, the “effect of autophagy modulator on antisense activity (in words)” value (cEt gapmer 556089, relative to DMSO) is “significantly enhanced antisense activity”.
